Earlier results in US20160120180A1, “COMPOSITIONS AND METHODS FOR CONTROLLING REPLANT DISEASES OF PERENNIAL CROPS” (Adjuvants Unlimited LLC, priority 2014, published 2016).

Legend:
Meloidogyne incognita [1] = details: in vitro
nematodes = details: soil-applied treatment on bermudagrass
test plants = details: emulsion applied to soil at 2 and 4 grams of fatty acid per square foot
Meloidogyne incognita [2] = details: sprayed on plant foliage as a dilute emulsion

SMILES: C=CCCCCCCCCC(=O)O [undecylenic acid]
- Effect on isolated egg masses (Meloidogyne incognita [1]): destroyed isolated egg masses
- Nematode number (nematodes): reduction in nematode number
- Effect on test plants (phytotoxicity) (test plants): the test plants died
- Systemic effects on nematodes (Meloidogyne incognita [2]): no systemic effects
